Source: patent US7662810B2, “2-arylmethylazetidine carbapenem derivatives and preparation thereof” (Korea Research Institute of Chemical Technology, priority 2004, dated 2010)
Values after ≈ are worked out from the molar mass of the structure shown. Where two headings read alike, the source gives them in different places.

Experiments:
[1] = system: Staphylococcus pyogenes 77A; experiment: Determination of Protection Dose (PD50) in Infected Animal Model; assay type: in vivo; conditions: mice infected intraperitoneally with Staphylococcus pyogenes 77A; compound injected intraperitoneally 1 hour after the infection
Method: (§1) In order to get the lethal dose (LD100) of bacteria, […] pyogenes 77A and Escherichia coli 078 were each diluted by 10^2˜10^9 times. […] For a main experiment, 3 to 4 week-old SPF ICR male mice were divided into 4 groups each of 8 to 10 mice, and fasted for 24 hours before a test. The solutions of […] pyogenes 77A and Escherichia coli 078 were concentrated to a level that was 2 to 10 times of LD100, and the concentrated […] pyogenes 77A solution mixed with 10% horse serum and the concentrated Escherichia coli 078 solution mixed with 5% hog gastric mucin were each injected intraperitoneally into the mice of each group to induce whole body infection.
(§2) The serially diluted solutions of the compound of Example 14 or meropenem (5 different concentrations) were injected intraperitoneally into the infected mice 1 hour after the infection. All of the mice in the control group injected with physiological salt solution died within 48 hours. The number of survived mouse in each group injected with antibacterial material, were counted to determine PD50, and the 95% confidence interval thereof was calculated employing Probit method.

[2] = system: Escherichia coli 078; experiment: as above; assay type: in vivo; conditions: mice infected intraperitoneally with Escherichia coli 078; compound injected intraperitoneally 1 hour after the infection
Method: as §1, §2

[3] = Test of Pharmacokinetics in Animals (mice); assay type: in vivo; conditions: mouse, 40 mg/kg
Method: The pharmacokinetics of the carbapenem derivatives of the present invention was determined using mice. […] Standard antibiotic samples were prepared by serial two-fold dilution with control blood. […] PK (pharmacokinetic) change indicators (AUC, Tmax, Cmax and T1/2) of the test compound concentration remaining in the mouse blood over time were assayed over a set period.

[4] = system: Staphylococcus aureus 241; experiment: Measurement of Minimum Inhibitory Concentration (MIC), QRS; assay type: cell-based
Procedure, shortened: (§3)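 Overnight (18 h, 37 °C) broth cultures were spot-inoculated, ~10^4 CFU per spot, on Müller-Hinton agar plates holding twofold serial compound dilutions at final 0.002–100 μg/ml.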

[5] = system: Staphylococcus epidermidis 178; experiment: as above; assay type: cell-based; conditions: QRS, Staphylococcus epidermidis 178
Procedure, shortened: as §3

[6] = system: Staphylococcus aureus 293; experiment: as above; assay type: cell-based; conditions: QRS, Staphylococcus aureus 293
Procedure, shortened: as §3

[7] = system: Staphylococcus epidermidis 291; experiment: as above; assay type: cell-based; conditions: QRS, Staphylococcus epidermidis 291
Procedure, shortened: as §3

[8] = system: Staphylococcus aureus 179; experiment: as above; assay type: cell-based
Procedure, shortened: as §3

[9] = system: Staphylococcus aureus 697E; experiment: Measurement of Minimum Inhibitory Concentration (MIC), MRSA; assay type: cell-based; conditions: Staphylococcus aureus 697E
Procedure, shortened: as §3

[10] = system: Staphylococcus aureus 690E; experiment: as above; assay type: cell-based; conditions: Staphylococcus aureus 690E
Procedure, shortened: as §3

[11] = system: Staphylococcus aureus 256E; experiment: as above; assay type: cell-based; conditions: Staphylococcus aureus 256E
Procedure, shortened: as §3

[12] = system: Staphylococcus aureus 208E; experiment: as above; assay type: cell-based; conditions: Staphylococcus aureus 208E
Procedure, shortened: as §3

[13] = system: Staphylococcus aureus 694E; experiment: as above; assay type: cell-based; conditions: Staphylococcus aureus 694E
Procedure, shortened: as §3

[14] = system: Staphylococcus aureus 693E; experiment: as above; assay type: cell-based; conditions: Staphylococcus aureus 693E
Procedure, shortened: as §3

[15] = system: Staphylococcus aureus 695E; experiment: as above; assay type: cell-based; conditions: Staphylococcus aureus 695E
Procedure, shortened: as §3

[16] = system: Staphylococcus aureus 692E; experiment: as above; assay type: cell-based; conditions: Staphylococcus aureus 692E
Procedure, shortened: as §3

[17] = system: Staphylococcus aureus 121E; experiment: as above; assay type: cell-based
Procedure, shortened: as §3

[18] = system: Staphylococcus aureus 88E; experiment: as above; assay type: cell-based
Procedure, shortened: as §3

[19] = system: Enterobacter cloacae P 99; experiment: Measurement of Minimum Inhibitory Concentration (MIC); assay type: cell-based
Procedure, shortened: as §3

[20] = system: Staphylococcus pyogenes 308A; experiment: as above; assay type: cell-based; conditions: Staphylococcus pyogenes 308A
Procedure, shortened: as §3

[21] = system: Staphylococcus aureus 285; experiment: as above; assay type: cell-based
Procedure, shortened: as §3

[22] = Test of Pharmacokinetics in Animals (rats); assay type: in vivo; conditions: rat, 20 mg/kg
Method: The pharmacokinetics of the carbapenem derivatives of the present invention was determined using mice. Each of the compounds of Examples 13 and 14 and meropenem (a positive control) was dissolved in distilled water, and mice were orally administered (PO) or subcutaneously injected (SC) at a dosage of 40 mg/kg body weight (I.C.R mice, weighing 22 to 25 g, 4 mice/group). Blood samples were withdrawn from mice tails using heparinated capillaries at 10 min., 20 min., 30 min., 45 min., 1 hour, 2 hours, 3 hours and 4 hours after the administration.
Standard antibiotic samples were prepared by serial two-fold dilution with control blood. Agar plates were prepared with Müller-Hinton agar medium containing 6.7% sheep blood and 1% Streptococcus pyogenes 77A culture solution, and the diluted standard and blood samples were added to wells formed on the plates. The plate was stored at 4° C. for 1 hour to allow the sample to spread, and incubated at 37° C. for 18 hours. PK (pharmacokinetic) change indicators (AUC, Tmax, Cmax and T1/2) of the test compound concentration remaining in the mouse blood over time were assayed over a set period.
Then, pharmacokinetical assay (amount of medicament administered was 20 mg/kg) was carried out as above using rats.

For `COc1ccc(CN2CC(SC3=C(C(=O)[O-])N4C(=O)[C@H]([C@@H](C)O)[C@H]4[C@H]3C)C2)cc1.[K+]` [Exam. 14, Potassium(1R,5S,6S)-2-[1-(4-methoxybenzyl)-azetidine-3-yl-thio]-6-[(1R)-1-hydroxylethyl]-1-methylcarbapen-2-em-3-carboxylate], the PD50 [1] was 3.05 mg/kg, the PD50 [2] was 1.44 mg/kg and the “AUC, times higher than meropenem” value ([3]; in vivo) was 10 to 12 times. The “increase in T1/2 than meropenem” value ([3]; in vivo) was “more than 2 times”, the “AUC (area under blood-medicament concentration curve till 24 hours from administration)” value ([3]; in vivo, po) was 5200 ng·h/mL and the Cmax ([3]; in vivo, po) was 2070 ng/mL. The “T1/2 (half time of blood-medicament concentration)” value ([3]; in vivo, po) was 124 min, the Tmax ([3]; in vivo, po) was 26.4 min and the “absorption through the oral route” value ([3]; in vivo, po) was “absorbed through the oral route to significant extents”. The “AUC (area under blood-medicament concentration curve till 24 hours from administration)” value ([3]; in vivo, sc) was 79660 ng·h/mL, the Cmax ([3]; in vivo, sc) was 69610 ng/mL and the “T1/2 (half time of blood-medicament concentration)” value ([3]; in vivo, sc) was 45.6 min. For the same compound, the Tmax ([3]; in vivo, sc) was 15 min, the MIC ([4]; QRS, Staphylococcus aureus 241) was 0.049 µg/mL and the MIC [5] was 0.391 µg/mL. It also gave an MIC [6] of 0.098 µg/mL, an MIC [7] of 0.391 µg/mL and an MIC ([8]; QRS, Staphylococcus aureus 179) of 0.049 µg/mL. The MIC [9] was 0.195 µg/mL, the MIC [10] was 0.391 µg/mL and the MIC [11] was 0.025 µg/mL. The MIC [12] was 0.049 µg/mL, the MIC [13] was 0.098 µg/mL and the MIC [14] was 0.391 µg/mL. For the same compound, the MIC [15] was 0.098 µg/mL, the MIC [16] was 0.391 µg/mL and the MIC ([17]; Staphylococcus aureus 121E) was 0.098 µg/mL. The MIC ([18]; Staphylococcus aureus 88E) was 0.1951 µg/mL, the MIC [19] was 0.391 µg/mL and the MIC [20] was 0.002 µg/mL. For the same compound, the MIC [21] was 0.098 µg/mL, the “AUC, times higher than meropenem” value ([22]; in vivo) was 17 times and the “increase in T1/2 than meropenem” value ([22]; in vivo) was “more than 2 times”. For the same compound, the “AUC (area under blood-medicament concentration curve till 24 hours after administration)” value ([22]; in vivo, po) was 330 ng·h/mL, the Cmax ([22]; in vivo, po) was 200 ng/mL and the “T1/2 (half time of blood-medicament concentration)” value ([22]; in vivo, po) was 304 min. The Tmax ([22]; in vivo, po) was 42.6 min, the “absorption through the oral route” value ([22]; in vivo, po) was “absorbed through the oral route to a significant extent” and the “AUC (area under blood-medicament concentration curve till 24 hours after administration)” value ([22]; in vivo, sc) was 34580 ng·h/mL. The Cmax ([22]; in vivo, sc) was 35850 ng/mL, the “T1/2 (half time of blood-medicament concentration)” value ([22]; in vivo, sc) was 41.4 min and the Tmax ([22]; in vivo, sc) was 22.2 min.
`C[C@@H](O)[C@H]1C(=O)N2C(C(=O)O)=C(S[C@@H]3CN[C@H](C(=O)N(C)C)C3)[C@H](C)[C@H]12` [Meropenem, reference compound] gave a PD50 [1] of 9.13 mg/kg, a PD50 [2] of 3.31 mg/kg and an AUC ([3]; ICR, whole blood, mice, SC, read-out: AUC (area under blood-medicament concentration curve till 24 hours from administration)) of 7500 ng·h/mL. It also gave a Cmax ([3]; ICR, whole blood, mice, SC, read-out: Cmax) of 13400 ng/mL, a half-life ([3]; ICR, whole blood, mice, SC, read-out: T1/2 (half time of blood-medicament concentration) (converted)) of 25.8 min and a Tmax ([3]; ICR, whole blood, mice, SC, read-out: Tmax) of 19.8 min. For the same compound, the MIC ([4]; Staphylococcus aureus, 241) was 0.195 µg/mL (≈ 0.509 µM), the MIC ([5]; read-out: MIC) was 0.781 µg/mL (≈ 2.04 µM) and the MIC ([6]; read-out: MIC) was 0.781 µg/mL (≈ 2.04 µM). For the same compound, the MIC ([7]; read-out: MIC) was 1.56 µg/mL (≈ 4.08 µM), the MIC ([8]; Staphylococcus aureus, 179) was 0.195 µg/mL (≈ 0.509 µM) and the MIC ([9]; read-out: MIC) was 0.098 µg/mL (≈ 0.256 µM). For the same compound, the MIC ([10]; read-out: MIC) was 3.12 µg/mL (≈ 8.15 µM), the MIC ([11]; read-out: MIC) was 0.049 µg/mL (≈ 0.128 µM) and the MIC ([12]; read-out: MIC) was 0.098 µg/mL (≈ 0.256 µM). It also gave an MIC ([13]; read-out: MIC) of 6.25 µg/mL (≈ 16.3 µM), an MIC ([14]; read-out: MIC) of 6.25 µg/mL (≈ 16.3 µM) and an MIC ([15]; read-out: MIC) of 0.781 µg/mL (≈ 2.04 µM). It also gave an MIC ([16]; read-out: MIC) of 0.098 µg/mL (≈ 0.256 µM), an MIC ([17]; Staphylococcus aureus) of 0.195 µg/mL (≈ 0.509 µM) and an MIC ([18]; Staphylococcus aureus) of 0.195 µg/mL (≈ 0.509 µM). For the same compound, the MIC ([19]; P99, read-out: MIC) was 0.049 µg/mL (≈ 0.128 µM), the MIC ([20]; Staphylococcus aureus, read-out: MIC) was 0.007 µg/mL (≈ 0.0183 µM) and the MIC ([21]; read-out: MIC) was 0.098 µg/mL (≈ 0.256 µM). The AUC ([22]; whole blood, rats, SC, read-out: AUC (area under blood-medicament concentration curve till 24 hours after administration)) was 2050 ng·h/mL, the Cmax ([22]; whole blood, rats, SC, read-out: Cmax) was 3920 ng/mL and the half-life ([22]; whole blood, rats, SC, read-out: T1/2 (half time of blood-medicament concentration) (converted)) was 18.6 min. The Tmax ([22]; whole blood, rats, SC, read-out: Tmax) was 15 min.
